Consider 1 compound from ChEMBL document CHEMBL1137326, “Cyclic MrIA: a stable and potent cyclic conotoxin with a novel topological fold that targets the norepinephrine transporter” (J Med Chem, 2006).

Series [1] deals with Sodium-dependent noradrenaline transporter (Homo sapiens, UniProt P23975). Put plainly: Displacement of [3H]nisoxetine from human NET in COS7 cells. The format is cell-based, COS-7. (In general: In a radioligand displacement assay an active substance lowers the binding of a labelled ligand.)
A further series concerns trypsin. Put plainly: Stability against cleavage by trypsin after 24 hrs by enzymatic digestion assay. To be noted: human, read-out: Activity. Type of series: ADME.

A word on the EC50: it is the midpoint of the concentration-response curve. High values mean a less potent agent, low ones a more potent agent.

Each structure is given as a SMILES string. A value given as a limit tells only on which side of the number the result lay.

Sodium-dependent noradrenaline transporter, sequence (P23975 whole entry): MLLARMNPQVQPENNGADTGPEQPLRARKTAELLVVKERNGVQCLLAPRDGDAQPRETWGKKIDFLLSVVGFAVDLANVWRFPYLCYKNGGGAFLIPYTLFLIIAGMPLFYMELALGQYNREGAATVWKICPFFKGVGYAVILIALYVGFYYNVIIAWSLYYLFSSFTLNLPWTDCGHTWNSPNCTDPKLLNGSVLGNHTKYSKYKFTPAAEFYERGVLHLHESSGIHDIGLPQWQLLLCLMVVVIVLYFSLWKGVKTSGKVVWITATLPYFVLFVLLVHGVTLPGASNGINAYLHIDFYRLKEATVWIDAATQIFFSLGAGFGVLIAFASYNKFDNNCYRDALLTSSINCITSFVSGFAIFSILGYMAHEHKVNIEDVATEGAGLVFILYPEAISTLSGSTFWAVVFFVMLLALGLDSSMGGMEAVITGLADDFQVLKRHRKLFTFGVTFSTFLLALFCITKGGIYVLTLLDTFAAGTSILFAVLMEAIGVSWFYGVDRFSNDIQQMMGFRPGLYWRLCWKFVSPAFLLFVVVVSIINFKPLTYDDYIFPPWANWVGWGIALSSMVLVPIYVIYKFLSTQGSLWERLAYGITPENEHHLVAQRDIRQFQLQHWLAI

As for `CC(C)C[C@@H]1NC(=O)[C@H](CCCCN)NC(=O)[C@H](Cc2ccc(O)cc2)NC(=O)CNC(=O)C2CSSCC(NC1=O)C(=O)N[C@@H](Cc1c[nH]cn1)C(=O)N1C[C@H](O)C[C@H]1C(=O)N[C@H](C(=O)O)CSSC[C@H](NC(=O)[C@@H](NC(=O)CNC(=O)[C@@H](N)CC(N)=O)C(C)C)C(=O)N2` (some centres not stated), the half-maximal effective concentration (EC50) in series [1] was 1.82 µM. The remaining at 24 h in the series with trypsin is less than 55%.
